In one test the test system is human PBMC. Briefly: IL-2-dependent growth of human peripheral blood mononuclear cells (PBMC). It counts as cell-based. The note with it: PHA-M pre-culture 3 days, IL-2 2 ng/mL, 2 days, CellTiter-Glo, read-out: PSMC IC50. Here is the method: The activity of the compound of the present invention to inhibit the IL-2-dependent growth reaction of human PBMC, which is caused by JAK3, was measured (Arthritis Rheum. 2010; 62(8): 2283-93).
With a medium containing 10 μg/mL PHA-M (Sigma) (which is RPI-1640 (Sigma) containing 10% human serum type AB (MP Biomedicals)), human PBMC (C.T.L.) (cell density: 1×10^6 cells/mL) was cultured at 37° C. in a culture vessel containing 5% carbon dioxide for 3 days. Thereafter, the culture was washed with RPMI-1640 four times, and a medium (RPMI-1640 containing 10% human serum type AB) was then added to the resultant culture to prepare a cell suspension. The cells (1×10^4 cells per well) and the serially diluted compound of the present invention were added to each well of a 96-well U-bottom microplate, and thus obtained mixture was then cultured at 37° C. in a culture vessel containing 5% carbon dioxide for 30 minutes. After completion of the culture, recombinant human IL-2 (Peprotech) was added to the culture to a final concentration of 2 ng/mL, and the obtained mixture was then stirred at 37° C. in a culture vessel containing 5% carbon dioxide for 2 days (1×10^4 cells/100 μl/each well). After completion of the culture, the resultant was left at a room temperature for 30 minutes, and 100 μl of CellTiter-Glo Luminescent Cell Viability Assay (Promega) was then added to the resultant, followed by stirring it. Thereafter, the reaction mixture was left for 10 minutes, and the amount of a luminescence derived from living cells in each well was then measured with a microplate reader (TECAN). The inhibition rate of the compound to the cell growth caused by IL-2 stimulation was calculated, and the concentration of the compound capable of inhibiting 50% of the cell growth was defined as an […] value (nM).
(In general: ATP-based viability assays read luminescence as a measure of living cells.)

The target of test [1] is T1, purified recombinant human JAK2 protein (Homo sapiens, UniProt O60674).
T1 construct: purchased Carna Biosciences, Inc
T1 sequence (O60674 whole entry): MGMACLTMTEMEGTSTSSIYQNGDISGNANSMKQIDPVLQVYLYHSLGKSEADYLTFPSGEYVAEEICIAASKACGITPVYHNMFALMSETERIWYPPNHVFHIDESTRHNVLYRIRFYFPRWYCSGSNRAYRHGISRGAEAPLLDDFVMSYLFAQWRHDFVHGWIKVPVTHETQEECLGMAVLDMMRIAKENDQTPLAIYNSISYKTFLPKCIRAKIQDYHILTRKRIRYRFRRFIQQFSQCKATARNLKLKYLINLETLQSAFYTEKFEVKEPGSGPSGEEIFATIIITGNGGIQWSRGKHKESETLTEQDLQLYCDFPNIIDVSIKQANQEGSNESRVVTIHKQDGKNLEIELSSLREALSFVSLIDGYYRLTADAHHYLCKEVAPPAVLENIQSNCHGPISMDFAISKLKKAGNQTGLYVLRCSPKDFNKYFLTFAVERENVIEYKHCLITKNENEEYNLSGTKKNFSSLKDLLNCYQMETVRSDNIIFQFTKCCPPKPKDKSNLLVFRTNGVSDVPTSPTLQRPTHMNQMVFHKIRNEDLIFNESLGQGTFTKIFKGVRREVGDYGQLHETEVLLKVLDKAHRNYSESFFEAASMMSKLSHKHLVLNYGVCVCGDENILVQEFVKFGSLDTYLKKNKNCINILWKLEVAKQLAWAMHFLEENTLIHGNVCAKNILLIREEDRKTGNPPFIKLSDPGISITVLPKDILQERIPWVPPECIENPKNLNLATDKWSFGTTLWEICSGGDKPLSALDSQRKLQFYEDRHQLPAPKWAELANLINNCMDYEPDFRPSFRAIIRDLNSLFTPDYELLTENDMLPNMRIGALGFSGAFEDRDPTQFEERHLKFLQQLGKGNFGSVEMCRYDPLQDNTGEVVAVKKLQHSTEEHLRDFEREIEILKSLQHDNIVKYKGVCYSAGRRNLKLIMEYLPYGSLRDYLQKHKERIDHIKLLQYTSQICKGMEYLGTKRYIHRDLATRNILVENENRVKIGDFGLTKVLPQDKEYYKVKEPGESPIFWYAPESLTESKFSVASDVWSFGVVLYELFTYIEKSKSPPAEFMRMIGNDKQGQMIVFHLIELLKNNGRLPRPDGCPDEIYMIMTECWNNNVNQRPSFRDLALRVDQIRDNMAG
The test can be described thus: Measurement of JAK2 kinase-inhibitory activity. It counts as biochemical. The note with it: FL-Peptide 22 1 μM, ATP 10 μM, 25° C., 80 minutes. Here is the method: 2) Measurement of JAK2 Kinase-Inhibitory Activity
The activity of the compound of the present invention to inhibit the activity of JAK2 kinase was measured.
Among materials for the measurement of this inhibitory activity, a substrate peptide and a kinase protein were acquired as follows. As such a substrate peptide, FL-Peptide 22 (Perkin Elmer Corp.) was purchased. As such a kinase protein, a purified recombinant human JAK2 protein (Carna Biosciences, Inc.) was purchased.
The method for measuring the inhibitory activity is as follows. First, a serial dilution of the compound of the present invention was prepared by the same method as that described in the above section regarding JAK1. This serial dilution solution (the final concentration of DMSO upon a kinase reaction: 5.0%) or DMSO (final concentration: 5.0%) was mixed with a solution containing the substrate peptide (final concentration: 1 μM), magnesium chloride (final concentration: 10 mM) and ATP (final concentration: 10 μM) in a buffer for kinase reaction (15 mM Tris (pH 7.5), 2 mM dithiothreitol and 0.01% Tween 20). Thereafter, a JAK2 protein was further added to the mixed solution, and the obtained mixture was then incubated at 25° C. for 80 minutes to carry out a kinase reaction. To the reaction solution, EDTA was added to a final concentration of 30 mM, so as to terminate the reaction. After termination of the reaction, the measurement and the data analysis were carried out by the same methods as those described in the above section regarding JAK1.

Each structure is given as a SMILES string. Bounds are passed on as bounds.

For the compound `Cc1nc(-c2c[nH]c3ncc(-c4ccccc4)cc23)cs1` [Comparative Example 3, 2-Methyl-4-(5-phenyl-1H-pyrrolo[2,3-b]pyridin-3-yl)thiazole, reference compound], the figures for the IC50 (with human PBMC; in test [1]) were above 3000 nM and 1600 nM, respectively.

`C=CC(=O)NC1CCC=C(c2ccnc3[nH]cc(-c4ccc(F)nc4)c23)C1` (stereo not drawn) [Compound 37, N-(3-(3-(6-Fluoropyridin-3-yl)-1H-pyrrolo[2,3-b]pyridin-4-yl)cyclohex-3-en-1-yl)acrylamide]: the figures for the IC50 (in the test on human PBMC; in test [1]) were 159 nM and 2400 nM, respectively.

On to `C=CC(=O)NC1CCC=C(c2ccnc3[nH]cc(-c4ccccc4)c23)C1` (stereo not drawn) [Compound 1, N-(3-(3-Phenyl-1H-pyrrolo[2,3-b]pyridin-4-yl)cyclohex-3-en-1-yl)acrylamide], for which the IC50 – broadly, the point on the concentration scale where inhibition reaches its midpoint – in the test with human PBMC stood at 216 nM; in test [1], 450 nM.

For the compound `C=CC(=O)NC1CCC=C(c2ccnc3[nH]cc(-c4nnco4)c23)C1` (stereo not drawn) [Compound 49, N-(3-(3-(1,3,4-Oxadiazol-2-yl)-1H-pyrrolo[2,3-b]pyridin-4-yl)cyclohex-3-en-1-yl)acrylamide], the IC50 in the test with human PBMC amounted to 122 nM; in test [1], 980 nM.

Turning to `C=CC(=O)NC1CCC=C(c2ccnc3[nH]cc(-c4cnco4)c23)C1` (stereo not drawn) [Compound 48, N-(3-(3-(Oxazol-5-yl)-1H-pyrrolo[2,3-b]pyridin-4-yl)cyclohex-3-en-1-yl)acrylamide], the concentration for half-maximal inhibition (IC50) in the test with human PBMC came to 114 nM; in test [1], 710 nM.

On to `C1=C(c2ccnc3[nH]ccc23)CCC1` [Comparative Example 2, 4-(Cyclopent-1-en-1-yl)-1H-pyrrolo[2,3-b]pyridine, reference compound], for which the IC50 with human PBMC is above 3000 nM; in test [1] it was 540 nM.

`C=CC(=O)NC1CCC=C(c2ccnc3[nH]cc(-c4ccco4)c23)C1` (stereo not drawn) [Compound 12, N-(3-(3-(Furan-2-yl)-1H-pyrrolo[2,3-b]pyridin-4-yl)cyclohex-3-en-1-yl)acrylamide]: the results for the IC50 (in the test on human PBMC; in test [1]) were 123 nM and 500 nM, respectively.

With `C=CC(=O)NC1CCC=C(c2ccnc3[nH]cc(-c4cn[nH]c4)c23)C1` (stereo not drawn) [Compound 3, N-(3-(3-(1H-Pyrazol-4-yl)-1H-pyrrolo[2,3-b]pyridin-4-yl)cyclohex-3-en-1-yl)acrylamide], the IC50 with human PBMC came out at 182 nM; in test [1], 570 nM.

Consider `C=CC(=O)NC1CCC=C(c2ccnc3[nH]cc(-c4cccnc4OC)c23)C1` (stereo not drawn) [Compound 6, N-(3-(3-(2-Methoxypyridin-3-yl)-1H-pyrrolo[2,3-b]pyridin-4-yl)cyclohex-3-en-1-yl)acrylamide], for which the IC50 amounted to 181 nM with human PBMC and 600 nM in test [1].

For the compound `C=CC(=O)NC1CC=C(c2ccnc3[nH]cc(-c4nnco4)c23)C1` (stereo not drawn) [Compound 57, N-(3-(3-(1,3,4-Oxadiazol-2-yl)-1H-pyrrolo[2,3-b]pyridin-4-yl)cyclopent-3-en-1-yl)acrylamide], the IC50 was 304 nM with human PBMC and 880 nM in test [1].

As to `C=CC(=O)NC1CCC=C(c2ccnc3[nH]cc(-c4nn(C)c(=O)o4)c23)C1` (stereo not drawn) [Compound 53, N-(3-(3-(4-Methyl-5-oxo-4,5-dihydro-1,3,4-oxadiazol-2-yl)-1H-pyrrolo[2,3-b]pyridin-4-yl)cyclohex-3-en-1-yl)acrylamide], the IC50 with human PBMC stood at 162 nM; in test [1] it was 990 nM.

Turning to `C=CC(=O)NC1CCC=C(c2ccnc3[nH]cc(C4=CCOC4)c23)C1` (stereo not drawn) [Compound 34, N-(3-(3-(2,5-Dihydrofuran-3-yl)-1H-pyrrolo[2,3-b]pyridin-4-yl)cyclohex-3-en-1-yl)acrylamide], the results for the IC50 (in the test on human PBMC; in test [1]) were 82 nM and 970 nM, respectively.

Turning to `C=CC(=O)NC1CCC=C(c2ccnc3[nH]cc(-c4nncs4)c23)C1` (stereo not drawn) [Compound 54], the values for the IC50 (in the test on human PBMC; in test [1]) were 170 nM and 2100 nM, respectively.

As to `C1=C(c2ccnc3[nH]ccc23)CCCC1` [Comparative Example 1, reference compound], the IC50 with human PBMC was above 3000 nM; in test [1], 450 nM.

For the compound `C=CC(=O)NC1CCC=C(c2ccnc3[nH]cc(-c4cc(CO)co4)c23)C1` (stereo not drawn) [Compound 14, N-(3-(3-(4-(Hydroxymethyl)furan-2-yl)-1H-pyrrolo[2,3-b]pyridin-4-yl)cyclohex-3-en-1-yl)acrylamide], the IC50 with human PBMC is 114 nM; in test [1] it was 590 nM.

For `C=CC(=O)N[C@H]1CCC=C(c2ccnc3[nH]cc(-c4ccno4)c23)C1` [Compound 59], the results for the IC50 (with human PBMC; in test [1]) were 55 nM and 430 nM, respectively.

As for `C=CC(=O)NC1CCC=C(c2ccnc3[nH]cc(-c4ccc(CO)o4)c23)C1` (stereo not drawn) [Compound 10, N-(3-(3-(5-(Hydroxymethyl)furan-2-yl)-1H-pyrrolo[2,3-b]pyridin-4-yl)cyclohex-3-en-1-yl)acrylamide], the IC50 in the test on human PBMC came to 136 nM; in test [1], 250 nM.

Turning to `C=CC(=O)N[C@H]1CCC=C(c2ccnc3[nH]cc(-c4nnco4)c23)C1` [Compound 55, (S)—N-(3-(3-(1,3,4-Oxadiazol-2-yl)-1H-pyrrolo[2,3-b]pyridin-4-yl)cyclohex-3-en-1-yl)acrylamide], the IC50 in the test with human PBMC turned out to be 34 nM; in test [1], 260 nM.

The values are drawn from patent US9676773B2, “Azaindole derivative” (TAIHO PHARMACEUTICAL CO., LTD., priority 2014, dated 2017).
